Earlier results as cited in patent US20240066021A1, “METHODS FOR OPTIMIZING CFTR-MODULATOR THERAPY” (Children's Hospital Medical Center, priority 2021, published 2024).
Where two headings read alike, the source gives them in different places.

Columns and labels:
NR2A/NR3A = NR2A/NR3A (Homo sapiens, UniProt Q12879)
NR2A = NR2A (Homo sapiens, UniProt Q12879)
[1] = test system: patients treated with ivacaftor versus patients untreated with CFTR modulators
[2] = test system: patients with at least one G551D mutation
Guanylatecyclase A(NPR1) = target: T1, Guanylatecyclase A(NPR1) (Homo sapiens, UniProt P16066); settings: Target Guanylatecyclase A(NPR1), Gene Symbol NPR1
T1 sequence (P16066 33-1061): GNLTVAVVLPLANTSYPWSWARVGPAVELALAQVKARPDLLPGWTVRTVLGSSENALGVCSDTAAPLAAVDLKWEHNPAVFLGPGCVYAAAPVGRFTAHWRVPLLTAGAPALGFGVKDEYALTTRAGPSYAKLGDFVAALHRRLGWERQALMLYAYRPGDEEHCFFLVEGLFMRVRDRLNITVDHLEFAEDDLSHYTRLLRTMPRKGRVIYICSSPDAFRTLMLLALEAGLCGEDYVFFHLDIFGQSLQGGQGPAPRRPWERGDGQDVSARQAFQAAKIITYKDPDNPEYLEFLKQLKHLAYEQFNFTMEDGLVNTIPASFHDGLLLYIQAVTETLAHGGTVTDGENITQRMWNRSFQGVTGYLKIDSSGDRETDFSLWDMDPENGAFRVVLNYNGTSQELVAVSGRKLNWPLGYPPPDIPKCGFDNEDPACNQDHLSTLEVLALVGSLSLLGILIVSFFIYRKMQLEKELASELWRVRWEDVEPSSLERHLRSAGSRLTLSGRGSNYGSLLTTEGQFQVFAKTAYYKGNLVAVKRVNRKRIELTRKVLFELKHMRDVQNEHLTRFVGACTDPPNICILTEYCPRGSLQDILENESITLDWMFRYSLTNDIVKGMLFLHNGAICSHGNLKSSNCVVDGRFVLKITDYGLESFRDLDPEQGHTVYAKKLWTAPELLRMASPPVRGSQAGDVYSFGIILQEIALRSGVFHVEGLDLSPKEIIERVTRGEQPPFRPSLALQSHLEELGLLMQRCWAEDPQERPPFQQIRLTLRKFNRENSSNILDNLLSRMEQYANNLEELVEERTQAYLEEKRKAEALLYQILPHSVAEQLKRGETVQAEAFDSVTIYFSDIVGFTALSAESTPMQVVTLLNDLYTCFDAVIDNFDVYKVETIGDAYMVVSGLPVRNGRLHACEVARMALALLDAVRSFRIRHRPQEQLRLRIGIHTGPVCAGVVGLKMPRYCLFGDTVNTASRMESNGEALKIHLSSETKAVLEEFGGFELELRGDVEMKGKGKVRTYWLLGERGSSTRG

HTR1B = HTR1B (Homo sapiens, UniProt P28222); settings: Target HTR1B, Gene Symbol HTR1B
HTR1B, sequence (P28222 whole entry): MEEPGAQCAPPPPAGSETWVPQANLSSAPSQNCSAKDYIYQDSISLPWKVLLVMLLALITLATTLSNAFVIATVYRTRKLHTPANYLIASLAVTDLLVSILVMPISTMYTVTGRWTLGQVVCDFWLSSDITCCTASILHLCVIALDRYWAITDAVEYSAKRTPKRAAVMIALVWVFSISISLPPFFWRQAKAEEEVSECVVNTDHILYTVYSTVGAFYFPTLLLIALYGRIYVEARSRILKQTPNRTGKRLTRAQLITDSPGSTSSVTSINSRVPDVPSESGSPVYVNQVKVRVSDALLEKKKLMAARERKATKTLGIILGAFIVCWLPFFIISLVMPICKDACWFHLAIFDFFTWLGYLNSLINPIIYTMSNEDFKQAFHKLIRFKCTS

SCN2A = SCN2A (Homo sapiens, UniProt Q99250)
TXNRD1 = target: T2, TXNRD1 (Homo sapiens, UniProt Q16881)
T2 sequence (Q16881 151-649 limits assumed): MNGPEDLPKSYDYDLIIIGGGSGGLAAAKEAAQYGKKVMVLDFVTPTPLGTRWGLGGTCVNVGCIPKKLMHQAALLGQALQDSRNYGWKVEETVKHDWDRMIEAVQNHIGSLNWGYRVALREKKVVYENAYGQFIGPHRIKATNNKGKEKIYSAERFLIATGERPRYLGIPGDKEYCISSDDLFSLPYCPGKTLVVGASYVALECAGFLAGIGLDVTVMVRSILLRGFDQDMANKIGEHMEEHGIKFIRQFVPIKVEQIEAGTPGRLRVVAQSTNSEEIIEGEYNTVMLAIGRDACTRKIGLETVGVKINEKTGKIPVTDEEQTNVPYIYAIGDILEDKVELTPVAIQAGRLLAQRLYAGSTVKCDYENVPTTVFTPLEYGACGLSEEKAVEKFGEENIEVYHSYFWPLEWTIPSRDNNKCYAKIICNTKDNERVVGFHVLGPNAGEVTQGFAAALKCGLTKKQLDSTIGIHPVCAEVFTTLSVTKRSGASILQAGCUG

[3] = target: PI3K catclass IB(p110-gamma) (Homo sapiens, UniProt P48736)
PI3K catclass IB(p110-gamma), sequence (P48736 whole entry): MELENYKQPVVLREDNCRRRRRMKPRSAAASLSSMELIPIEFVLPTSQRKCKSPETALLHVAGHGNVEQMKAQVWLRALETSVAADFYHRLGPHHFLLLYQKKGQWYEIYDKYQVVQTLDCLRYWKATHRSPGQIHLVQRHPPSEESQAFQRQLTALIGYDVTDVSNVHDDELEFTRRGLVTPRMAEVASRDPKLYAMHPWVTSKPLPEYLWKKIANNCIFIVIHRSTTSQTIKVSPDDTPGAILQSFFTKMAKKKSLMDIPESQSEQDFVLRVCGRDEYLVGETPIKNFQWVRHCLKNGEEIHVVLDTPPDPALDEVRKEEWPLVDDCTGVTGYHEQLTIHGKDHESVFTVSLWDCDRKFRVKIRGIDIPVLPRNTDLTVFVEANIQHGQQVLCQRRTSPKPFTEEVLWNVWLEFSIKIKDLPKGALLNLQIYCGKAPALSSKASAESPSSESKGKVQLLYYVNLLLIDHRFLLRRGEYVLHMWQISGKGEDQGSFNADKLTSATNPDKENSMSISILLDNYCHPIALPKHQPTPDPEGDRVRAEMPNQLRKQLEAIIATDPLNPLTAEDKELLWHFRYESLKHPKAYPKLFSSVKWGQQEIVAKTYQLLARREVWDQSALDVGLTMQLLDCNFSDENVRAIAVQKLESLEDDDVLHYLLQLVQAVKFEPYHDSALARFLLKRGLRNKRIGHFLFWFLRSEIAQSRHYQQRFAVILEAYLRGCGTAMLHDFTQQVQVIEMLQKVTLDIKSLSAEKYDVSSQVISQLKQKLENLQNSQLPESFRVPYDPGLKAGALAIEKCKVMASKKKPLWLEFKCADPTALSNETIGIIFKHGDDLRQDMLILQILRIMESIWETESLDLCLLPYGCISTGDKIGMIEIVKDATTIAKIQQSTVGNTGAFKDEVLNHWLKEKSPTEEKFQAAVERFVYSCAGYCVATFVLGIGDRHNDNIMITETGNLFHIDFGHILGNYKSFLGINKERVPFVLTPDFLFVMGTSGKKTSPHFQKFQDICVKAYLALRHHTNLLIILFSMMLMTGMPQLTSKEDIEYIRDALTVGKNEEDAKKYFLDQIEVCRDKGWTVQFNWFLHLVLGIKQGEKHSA

mTOR = mTOR (Homo sapiens, UniProt P42345); settings: Target mTOR, Gene Symbol MTOR
IKK-beta = target: T3, IKK-beta (Homo sapiens, UniProt O14920); settings: Target IKK-beta, Gene Symbol IKBKB
T3 sequence (O14920 1-756): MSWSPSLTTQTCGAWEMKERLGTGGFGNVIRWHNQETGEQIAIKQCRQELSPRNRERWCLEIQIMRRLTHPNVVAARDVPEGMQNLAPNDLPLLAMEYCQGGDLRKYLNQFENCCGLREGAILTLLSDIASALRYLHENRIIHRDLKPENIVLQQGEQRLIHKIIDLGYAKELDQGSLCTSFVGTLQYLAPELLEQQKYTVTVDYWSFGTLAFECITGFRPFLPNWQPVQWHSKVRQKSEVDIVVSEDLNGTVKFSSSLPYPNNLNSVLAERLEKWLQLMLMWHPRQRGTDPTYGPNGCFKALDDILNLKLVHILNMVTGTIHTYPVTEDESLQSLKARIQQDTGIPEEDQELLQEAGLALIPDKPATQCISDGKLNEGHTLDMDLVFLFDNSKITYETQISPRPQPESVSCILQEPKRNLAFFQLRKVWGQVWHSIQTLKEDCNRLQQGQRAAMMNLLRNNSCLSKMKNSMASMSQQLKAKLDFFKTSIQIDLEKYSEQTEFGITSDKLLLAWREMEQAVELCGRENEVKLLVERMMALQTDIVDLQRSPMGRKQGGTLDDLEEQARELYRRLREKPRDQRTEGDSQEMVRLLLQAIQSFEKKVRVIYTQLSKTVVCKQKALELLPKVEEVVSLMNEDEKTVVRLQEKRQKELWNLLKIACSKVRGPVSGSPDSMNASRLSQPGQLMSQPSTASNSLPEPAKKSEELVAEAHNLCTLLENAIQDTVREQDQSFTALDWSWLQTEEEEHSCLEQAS

[4] = Target NR2A, Gene Symbol GRIN2A
[5] = six months after drug initiation

NR2A, sequence (Q12879 23-1464, other chains not shown): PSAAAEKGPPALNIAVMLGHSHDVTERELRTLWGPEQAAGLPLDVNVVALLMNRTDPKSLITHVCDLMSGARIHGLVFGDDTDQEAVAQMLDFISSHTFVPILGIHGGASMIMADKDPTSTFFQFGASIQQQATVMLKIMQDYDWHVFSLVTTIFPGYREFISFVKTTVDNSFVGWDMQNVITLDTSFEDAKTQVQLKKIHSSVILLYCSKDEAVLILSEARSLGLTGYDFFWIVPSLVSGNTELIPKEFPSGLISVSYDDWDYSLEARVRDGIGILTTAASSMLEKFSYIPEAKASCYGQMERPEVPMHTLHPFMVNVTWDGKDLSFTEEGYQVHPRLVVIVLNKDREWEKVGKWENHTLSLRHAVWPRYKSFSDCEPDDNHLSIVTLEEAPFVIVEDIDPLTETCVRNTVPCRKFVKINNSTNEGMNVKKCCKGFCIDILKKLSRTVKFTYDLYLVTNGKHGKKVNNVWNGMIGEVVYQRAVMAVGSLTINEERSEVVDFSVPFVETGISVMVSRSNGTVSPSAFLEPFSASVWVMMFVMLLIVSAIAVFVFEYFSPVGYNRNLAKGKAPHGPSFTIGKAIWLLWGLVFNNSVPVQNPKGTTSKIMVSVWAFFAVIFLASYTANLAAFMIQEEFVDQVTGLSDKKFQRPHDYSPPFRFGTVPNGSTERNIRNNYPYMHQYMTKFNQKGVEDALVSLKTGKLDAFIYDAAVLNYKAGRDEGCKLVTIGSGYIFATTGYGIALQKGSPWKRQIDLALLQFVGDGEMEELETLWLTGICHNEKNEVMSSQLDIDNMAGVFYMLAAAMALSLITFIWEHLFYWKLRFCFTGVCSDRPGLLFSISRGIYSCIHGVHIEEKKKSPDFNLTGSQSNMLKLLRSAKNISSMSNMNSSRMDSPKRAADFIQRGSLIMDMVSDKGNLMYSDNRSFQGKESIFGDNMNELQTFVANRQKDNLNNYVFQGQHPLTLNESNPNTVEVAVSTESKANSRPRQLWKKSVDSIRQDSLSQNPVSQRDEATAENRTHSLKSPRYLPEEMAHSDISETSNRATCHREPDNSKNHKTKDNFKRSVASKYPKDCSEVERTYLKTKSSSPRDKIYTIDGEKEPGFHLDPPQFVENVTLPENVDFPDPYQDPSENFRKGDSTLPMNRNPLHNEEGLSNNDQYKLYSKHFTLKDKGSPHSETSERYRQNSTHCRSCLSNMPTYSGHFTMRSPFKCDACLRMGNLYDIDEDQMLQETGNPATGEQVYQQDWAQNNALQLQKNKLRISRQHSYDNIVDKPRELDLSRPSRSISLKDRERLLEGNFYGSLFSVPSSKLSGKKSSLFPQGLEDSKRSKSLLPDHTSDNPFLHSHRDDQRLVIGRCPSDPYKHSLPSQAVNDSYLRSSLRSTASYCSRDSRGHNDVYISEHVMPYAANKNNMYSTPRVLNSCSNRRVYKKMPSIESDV
NR2A/NR3A, sequence (Q12879 23-1464, other chains not shown): as above

Question: For `CC12CC3CC(C)(C1)CC(N)(C3)C2` [Memantine], which Effect (NR2A/NR3A; Target NR2A/NR3A, Gene Symbol GRIN2A) is on record?
Answer: The Effect was “Inhibition”.

Question: What about the Effect (NR2A; [4]) of the same compound?
Answer: Its Effect is “Inhibition”.

Question: For `CC(C)(C)c1cc(C(C)(C)C)c(NC(=O)c2c[nH]c3ccccc3c2=O)cc1O` [ivacaftor], which BMI ([1]; longer term follow up) is on record?
Answer: The BMI was “maintain improved”.

Question: What about the hospitalizations ([1]; longer term follow up) of the same compound?
Answer: The hospitalizations was “decreasing”.

Question: And the pulmonary exacerbations ([1]; longer term follow up)?
Answer: The pulmonary exacerbations was “decreasing”.

Question: And the lung function decline ([1]; versus patients untreated with CFTR modulators)?
Answer: The lung function decline was “slowed”.

Question: And the “mean change in ppFEV1” value [2, 5]?
Answer: Its value is 6.7 (95% CI 4.9-8.5).

Question: What about the “mean change in weight” value [2, 5] of the same compound?
Answer: The value was 2.5 kg.

Question: What about the “mean decline in sweat chloride” value [2, 5] of the same compound?
Answer: The value was −54 mEq.

Question: What about the “quality of life scores” value [2, 5] of the same compound?
Answer: The value was “improvement”.

Question: What about the rate of hospitalization ([2]; six months after drug initiation, p<0.001) of the same compound?
Answer: The rate of hospitalization was “decreased”.

Question: And the “portion of subjects with physiologic CFTR correction that did not have improvement in FEV1>5% (poor lung function response)” value ([2]; subjects with sweat chloride shifts by −40 to −80 mEq/L)?
Answer: The value was about 50%.

Question: For `O=[N+]([O-])O[C@H]1CO[C@H]2[C@@H]1OC[C@H]2O[N+](=O)[O-]` [Isosorbide dinitrate], which Effect (Guanylatecyclase A(NPR1)) is on record?
Answer: The Effect was “Inhibition”.

Question: With `CNS(=O)(=O)CCc1ccc2[nH]cc(C3CCN(C)CC3)c2c1` [Naratriptan] as the compound, how does the Effect (HTR1B) read?
Answer: Its Effect is “Activation”.

Question: With `CN[C@@H]1CCc2[nH]c3ccc(C(N)=O)cc3c2C1` [Frovatriptan] as the compound, how does the Effect (HTR1B) read?
Answer: The Effect was “Activation”.

Question: With `NC1=N[C@H](O)[C@H]2[C@H]3O[C@]4(O)O[C@@H]([C@@H](O)[C@@]2(N1)[C@@H]4O)[C@]3(O)CO` [Tetrodotoxin] as the compound, how does the Effect (SCN2A) read?
Answer: The Effect was “Inhibition”.

Question: For `CC(=O)[O-].CC(=O)[O-].CCc1c(CC)c2cc3nc(cnc4cc(OCCOCCOCCOC)c(OCCOCCOCCOC)cc4ncc4nc(cc1[n-]2)C(CCCO)=C4C)C(C)=C3CCCO.O.[Gd+3]` [Motexafin gadolinium], which Effect (TXNRD1; Target TXNRD1, Gene Symbol TXNRD1) is on record?
Answer: Its Effect is “Inhibition”.

Question: For `NC(=O)CNC1Cc2ccccc2C1` [Indantadol], which Effect (NR2A; [4]) is on record?
Answer: Its Effect is “Inhibition”.

Question: Which Effect ([3]; Target PI3K catclass IB(p110-gamma), Gene Symbol PIK3CG) does the source give for `Nc1nc(N)c2nc(-c3cccc(O)c3)c(-c3cccc(O)c3)nc2n1` [TG100115] here?
Answer: Its Effect is “Inhibition”.

Question: With `CN1CCN(c2ncc(-c3cc(Cl)cc(Cl)c3Cl)c(N)n2)CC1` [Sipatrigine] as the compound, how does the Effect (SCN2A) read?
Answer: The Effect was “Inhibition”.

Question: Which Effect [3] does the source give for `C=CCN(/C=C1/C(=O)O[C@H](COC)[C@@]2(C)C1=C(O)C(=O)C1=C2[C@H](OC(C)=O)C[C@]2(C)C(=O)CC[C@@H]12)CC=C` [Sonolisib] here?
Answer: Its Effect is “Inhibition”.

Question: Which Effect (mTOR) does the source give for `CO[C@H]1C[C@@H]2CC[C@@H](C)[C@@](O)(O2)C(=O)C(=O)N2CCCC[C@H]2C(=O)O[C@H]([C@H](C)C[C@@H]2CC[C@@H](OCCO)[C@H](OC)C2)CC(=O)[C@H](C)/C=C(\C)[C@@H](O)[C@@H](OC)C(=O)[C@H](C)C[C@H](C)/C=C/C=C/C=C/1C` [Everolimus] here?
Answer: The Effect was “Inhibition”.

Question: With `COc1ccc(-c2ccc3c(N4CCOC[C@@H]4C)nc(N4CCOC[C@@H]4C)nc3n2)cc1CO` [AZD8055] as the compound, how does the Effect (mTOR) read?
Answer: Its Effect is “Inhibition”.

Question: Which Effect (HTR1B) does the source give for `CN(C)CCc1c[nH]c2ccc(Cn3cncn3)cc12` [Rizatriptan] here?
Answer: Its Effect is “Activation”.

Question: Which Effect (Guanylatecyclase A(NPR1)) does the source give for Nesiritide here?
Answer: The Effect was “Activation”.

Question: For `CO[C@H]1C[C@@H]2CC[C@@H](C)[C@@](O)(O2)C(=O)C(=O)N2CCCC[C@H]2C(=O)O[C@H]([C@H](C)C[C@@H]2CC[C@@H](OP(C)(C)=O)[C@H](OC)C2)CC(=O)[C@H](C)/C=C(\C)[C@@H](O)[C@@H](OC)C(=O)[C@H](C)C[C@H](C)/C=C/C=C/C=C/1C` [Ridaforolimus], which Effect (mTOR) is on record?
Answer: Its Effect is “Inhibition”.

Question: Which Effect (TXNRD1) does the source give for `Cn1c(COP(=O)(NCCBr)NCCBr)cnc1[N+](=O)[O-]` [Evofosfamide] here?
Answer: The Effect was “Inhibition”.

Question: Which Effect (NR2A/NR3A) does the source give for `CNC1(c2ccccc2Cl)CCCCC1=O` (stereo not shown) [Ketamine] here?
Answer: The Effect was “Inhibition”.

Question: What about the Effect (NR2A) of the same compound?
Answer: Its Effect is “Inhibition”.

Question: Which Effect (NR2A; [4]) does the source give for `CC(Cc1ccccc1)(NC(=O)CN)c1ccccc1` (stereo not shown) [Remacemide] here?
Answer: The Effect was “Inhibition”.

Question: Which Effect (IKK-beta) does the source give for `C[C@@H]1CN(C(=O)CN2CC(C)(C)OC[C@H]2C(=O)Nc2cc(Cl)cc3c2[nH]c2cnccc23)C[C@H](C)O1` [MLN0415] here?
Answer: Its Effect is “Inhibition”.

Question: With `CO[C@H]1C[C@@H]2CC[C@@H](C)[C@@](O)(O2)C(=O)C(=O)N2CCCC[C@H]2C(=O)O[C@H]([C@H](C)C[C@@H]2CC[C@@H](OC(=O)C(C)(CO)CO)[C@H](OC)C2)CC(=O)[C@H](C)/C=C(\C)[C@@H](O)[C@@H](OC)C(=O)[C@H](C)C[C@H](C)/C=C/C=C/C=C/1C` [Temsirolimus intracellular, Temsirolimus] as the compound, how does the Effect (mTOR) read?
Answer: Its Effect is “Inhibition”.

Question: For `CN(C)CCc1c[nH]c2ccc(CS(=O)(=O)N3CCCC3)cc12` [Almotriptan], which Effect (HTR1B) is on record?
Answer: Its Effect is “Activation”.

Question: With `COc1cc(O)c(CC=C(C)C)c(O)c1C(=O)/C=C/c1ccc(O)cc1` [Xanthohumol] as the compound, how does the Effect (IKK-beta) read?
Answer: The Effect was “Inhibition”.
